Measured values: patent US4963570A, “1-(acetylaminophenyl)-2-aminopropanone derivatives and pharmaceutical compositions thereof” (Laboratoire L. Lafon, priority 1983, dated 1990)
“Also recorded” adds a separate entry of the source.

Experiments:
[1] = tested on: male mice; conditions: reference stimulant agents; cited from earlier work
[2] = tested on: rats; assay: action on stereotypies in rats (α-methyltyrosine, haloperidol, reserpine); conditions: for suppression of induced stereotype movements by prior injection of alpha-methyltyrosine: i.p.
[3] = tested on: mice; assay: motility reduced by hypoxic aggression; type: in vivo, mouse; conditions: i.p., dose not stated
Description: Half an hour after they have received CRL 41 224, the mice (10 per dose, 20 control animals) are subjected to acute hypobaric anoxia [pressure reduction of 600 mm Hg (i.e. about 8×10^4 Pa) in 90 seconds; release of vacuum in 45 seconds] and are then placed in an actimeter, where their motility is recorded for 10 minutes.

[4] = tested on: mice; assay: interaction with apomorphine in mice; type: in vivo, mouse; conditions: i.p.; dose not stated
Description: Groups of 6 mice receive CRL 41 224 0.5 hour before the subcutaneous injection of 1 or 16 mg/kg of apomorphine.

[5] = tested on: mice; assay: four plate test, traction and electric shock; type: in vivo, mouse; conditions: i.p.
Description: The test is performed on groups of 10 mice 30 minutes after the administration of CRL 41 224.

[6] = tested on: mice; assay: action on the spontaneous motility (actimeter); type: in vivo, mouse; conditions: mice, i.p.; dose not stated
Description: 0.5 hour after they have received CRL 41 224, the mice (6 per dose, 12 control animals) are placed in an actimeter, where their motility is recorded for 30 minutes.

[7] = tested on: mice; assay: toxicity to grouped mice compared with isolated mice; type: in vivo, mouse
[8] = tested on: rats; assay: interaction with amphetamine; type: in vivo, rat; conditions: rats, i.p.; dose not stated
Description: Amphetamine (2 mg/kg) is injected intraperitoneally into groups of 6 rats 30 minutes after the administration of CRL 41 224.

[9] = tested on: mice; assay: overall behavior and reactivities in mice; type: in vivo, mouse; conditions: mice, i.p.; dose not stated
Description: (§1) Groups of three animals are observed before and then 0.25 hour, 0.50 hour, 1 hour, 2 hours, 3 hours and 24 hours after the administration of CRL 41 224.

[10] = tested on: CNS; assay: overall neuropsychopharmacological (CNS) profile; type: in vivo, mouse; rat; conditions: i.p., mice and rats; dose not stated
Description: The neuropsychopharmacological study of CRL 41 219 was carried out as indicated above for CRL 41 224.
The neuropsychopharmacological study of CRL 41 220 was carried out in accordance with the procedures given above for CRL 41 224.

[11] = tested on: rats; assay: overall behavior and reactivities in rats; type: in vivo, rat; conditions: i.p., dose not stated
Description: as §1

[12] = tested on: mice; assay: action on the behavioral despair; type: in vivo, mouse; conditions: i.p., dose not stated
From the text: Half an hour after they have received CRL 41 224, groups of 6 mice are placed in a beaker filled with water to a height of 6 cm. The total period of immobility between the 2nd and 6th minutes following immersion is noted.

[13] = tested on: mice; assay: motility reduced by habituation to the enclosure; type: in vivo, mouse; conditions: i.p., dose not stated
Description: After they have stayed in the actimeters for 18 hours, the mice (6 per dose, 12 control animals) receive CRL 41 224. They are immediately returned to their respective enclosures and, half an hour later, their motility is recorded for 30 minutes.

[14] = tested on: peripheral α-adrenergic stimulation; assay: signs of peripheral adrenergic stimulation; type: in vivo, mouse; rat; conditions: i.p., dose not stated
Description: as §1

[15] = tested on: rats; assay: interaction with apomorphine in rats; type: in vivo, rat; conditions: i.p., dose not stated
Description: CRL 41 224 is administered to groups of 6 rats 0.5 hour before the subcutaneous injection of 0.5 mg/kg of apomorphine.

[16] = tested on: mice; assay: interaction with oxotremorine; type: in vivo, mouse; conditions: i.p.; for hypothermia induced by oxotremorine / trembling caused by oxotremorine: dose not stated
Description: CRL 41 224 is administered to groups of 6 mice 0.5 hour before the intraperitoneal injection of 0.5 mg/kg of oxotremorine.

[17] = tested on: mice; assay: interaction with barbital; type: in vivo, mouse; conditions: i.p.; dose not stated
Description: Half an hour after the administration of CRL 41 224, groups of 10 mice receive an intraperitoneal injection of barbital (220 mg/kg).

[18] = tested on: mice; assay: interaction with reserpine; type: in vivo, mouse; conditions: i.p.; dose not stated
Description: Four hours after the intraperitoneal injection of 2.5 mg/kg of reserpine, groups of 6 mice receive CRL 41 224.

[19] = tested on: mice; assay: action on the intergroup aggression; type: in vivo, mouse; conditions: i.p., dose not stated
Description: After they have stayed for 3 weeks in the 2 halves of a cage divided by an opaque partition, groups of 3 mice receive CRL 41 224. Half an hour later, the two groups from the same cage are brought together by removal of the partition, and the number of fights which occur in 10 minutes is noted. Half the test is performed on ordinary mice (NMRI, C.E.R. January) and half on NMRI (Iffa Credo) mice.

[20] = tested on: male mice; assay: acute toxicity, intraperitoneal (lethal doses); type: in vivo, mouse; conditions: i.p.
Description: By intraperitoneal administration to male mice, the LD-30 (lethal dose for 30% of the animals tested) is of the order of 128 mg/kg and the LD-50 is of the order of about 200 mg/kg.

Structure (SMILES) | motor effects with I.V.C. administration of noradrenaline [1] | motor recovery after hypoxic aggression [3] | hypothermia induced by apomorphine [4] | spontaneous motility / motor activity [6] | stereotypies induced by amphetamine [8] | excitation in mice [9] | overall action on the CNS [10] | stereotype movements in rats [11] | period of immobility or "despair" [12] | motor activity after habituation to the enclosure [13] | mydriasis [14] | peripheral adrenergic stimulation, overall [14] | stereotypies induced by apomorphine [15] | hypothermia induced by oxotremorine [16] | sleep induced by barbital [17] | hypothermia induced by reserpine [18] | ptosis induced by reserpine [18] | other results
COC(=O)[C@H]1[C@@H](OC(=O)c2ccccc2)C[C@@H]2CC[C@H]1N2C [cocaine] | potentialized by I.V.C. administration of noradrenaline | – | – | – | – | – | – | – | – | – | – | – | – | – | – | – | – | –
COC(=O)C(c1ccccc1)C1CCCCN1 (stereo not shown) [methylphenidate, reference compound] | potentialized by I.V.C. administration of noradrenaline | – | – | – | – | – | – | – | – | – | – | – | – | – | – | – | – | effect of reserpine on induced stereotypies ([2]; reserpine 4 mg/kg i.p. 24 hours before): only a moderate reduction of the stereotypies
CN1Cc2c(N)cccc2C(c2ccccc2)C1 (stereo not shown) [nomifensine] | potentialized by I.V.C. administration of noradrenaline | – | – | – | – | – | – | – | – | – | – | – | – | – | – | – | – | –
CNC(C)C(=O)c1ccc(NC(C)=O)cc1 (stereo not shown) [CRL 41 217] | – | an improvement in the motor recovery in mice after acute hypoxia | antagonism of the hypothermia induced by apomorphine | an increase in the spontaneous motility in mice | potentiation of the stereotypies induced by apomorphine or amphetamine | excitation with hyperreactivity in mice | stimulant effects; also recorded: antidepressant effects | stereotype movements in rats | a reduction in the immobility | a resumption in the motor activity of mice accustomed to their enclosure | mydriasis | effects which may reflect peripheral adrenergic stimulation | potentiation of the stereotypies induced by apomorphine | antagonism of the hypothermia induced by apomorphine, oxotremorine | antagonism of the sleep induced by barbital | antagonism of the hypothermia induced by apomorphine, oxotremorine or reserpine | antagonism of the ptosis induced by reserpine | suppression of induced stereotype movements by prior injection of alpha-methyltyrosine [2]: not suppressed; convulsant effects of electric shock ([5]; dose not stated): potentiate the convulsant effects of electric shock; toxicity to grouped mice compared with isolated mice [7]: do not increase the toxicity to grouped mice; exophthalmos [14]: absent; salivation [14]: absent; trembling caused by oxotremorine [16]: antagonism of the trembling caused by oxotremorine
CCCNC(C)C(=O)c1ccc(NC(C)=O)cc1 (stereo not shown) [CRL 41 212] | – | an improvement in the motor recovery in mice after acute hypoxia | antagonism of the hypothermia induced by apomorphine | an increase in the spontaneous motility in mice | potentiation of the stereotypies induced by apomorphine or amphetamine | excitation with hyperreactivity in mice | stimulant effects; also recorded: antidepressant effects | stereotype movements in rats | a reduction in the immobility | a resumption in the motor activity of mice accustomed to their enclosure | mydriasis | effects which may reflect peripheral adrenergic stimulation | potentiation of the stereotypies induced by apomorphine | antagonism of the hypothermia induced by apomorphine, oxotremorine | antagonism of the sleep induced by barbital | antagonism of the hypothermia induced by apomorphine, oxotremorine or reserpine | antagonism of the ptosis induced by reserpine | suppression of induced stereotype movements by prior injection of alpha-methyltyrosine [2]: not suppressed; convulsant effects of electric shock ([5]; dose not stated): anticonvulsant effects; toxicity to grouped mice compared with isolated mice [7]: do not increase the toxicity to grouped mice; exophthalmos [14]: absent; salivation [14]: absent; trembling caused by oxotremorine [16]: antagonism of the trembling caused by oxotremorine
CC(=O)Nc1ccc(C(=O)C(C)NC2CC2)cc1 (stereo not shown) [CRL 41 245] | – | improvement in the motor recovery in mice subjected to acute hypoxia | antagonism of the hypothermia induced by apomorphine | increase in the spontaneous motor activity | potentiation of the stereotypies induced by apomorphine and amphetamine | excitation with hyperreactivity in mice | behaves as an antidepressant with a strong stimulant component | presence of stereotype movements in mice and rats | reduction in the period of immobility | resumption in the motor activity of mice accustomed to their enclosure | mydriasis in rats | peripheral α-adrenergic stimulation | potentiation of the stereotypies induced by apomorphine | antagonism of the hypothermia induced by apomorphine, reserpine and oxotremorine | reduction in the duration of the sleep induced by barbital | antagonism of the hypothermia induced by apomorphine, reserpine | reduction in the ptosis induced by reserpine | intergroup aggression [19]: a reduction in the intergroup aggression; convulsant effects of electric shock ([5]; strong/high dose): total antagonism; number of punished passes in the 4 plate test ([5]; mice, dose not stated): increase in the number of punished passes; stereotype movements in mice [9]: presence of stereotype movements in mice; excitation in rats [11]: excitation with hyperreactivity in mice and rats; LD-0 (maximum non-lethal dose) [20]: greater than 256 mg/kg; LD-100 [20]: less than or equal to 512 mg/kg; piloerection ([14]; mice and rats): piloerection in mice and rats; trembling due to oxotremorine ([16]; strong dose): a reduction, at a strong dose, in the intensity of the trembling due to oxotremorine
CC(N)Cc1ccccc1 (stereo not shown) [amphetamine, reference compound] | potentialized by I.V.C. administration of noradrenaline | – | – | – | – | – | – | – | – | – | – | – | – | – | – | – | – | effect of haloperidol on induced stereotypies ([2]; haloperidol 0.25 mg/kg i.p. 0.5 h before): almost totally prevents the appearance of stereotypies; effect of haloperidol on induced stereotypies ([2]; haloperidol 0.5 mg/kg i.p. 0.5 h before): totally inhibits the said stereotypies
